Assay results: PubChem BioAssay AID1259407 (Chemical Carcinogenesis Research Information System (CCRIS), 2018)
Activity calls are given as the source filed them. No rule for the calls is given here.

System: CCRIS mutagenicity, Ames/micronucleus/aberration tests
Assay: CCRIS mutagenicity studies
[1] = Test System: AMES SALMONELLA TYPHIMURIUM, Strain/Indicator: TA98, Metabolic Activation: NONE, Method: PREINCUBATION
[2] = Test System: AMES SALMONELLA TYPHIMURIUM, Strain/Indicator: TA100, Metabolic Activation: NONE, Method: PREINCUBATION
[3] = Test System: AMES SALMONELLA TYPHIMURIUM, Strain/Indicator: TA100, Metabolic Activation: RAT, LIVER, S-9, PCB, Method: PREINCUBATION
[4] = Test System: AMES SALMONELLA TYPHIMURIUM, Strain/Indicator: TA98(NR), Metabolic Activation: NONE, Method: PREINCUBATION
[5] = Test System: AMES SALMONELLA TYPHIMURIUM, Strain/Indicator: TA98(NR), Metabolic Activation: NONE, Method: STANDARD PLATE
[6] = Test System: AMES SALMONELLA TYPHIMURIUM, Strain/Indicator: TA98, Metabolic Activation: NONE, Method: STANDARD PLATE
[7] = Test System: AMES SALMONELLA TYPHIMURIUM, Strain/Indicator: TA100, Metabolic Activation: NONE, Method: STANDARD PLATE
[8] = Test System: AMES SALMONELLA TYPHIMURIUM, Strain/Indicator: TA1535, Metabolic Activation: NONE, Method: STANDARD PLATE
[9] = Test System: AMES SALMONELLA TYPHIMURIUM, Strain/Indicator: TA98, Metabolic Activation: RAT, LIVER, S-9, AROCLOR 1254, Method: PREINCUBATION
[10] = Test System: AMES SALMONELLA TYPHIMURIUM, Strain/Indicator: TA98, Metabolic Activation: RAT, LIVER, S-9, AROCLOR 1254, Method: STANDARD PLATE
[11] = Test System: AMES SALMONELLA TYPHIMURIUM, Strain/Indicator: TA100, Metabolic Activation: RAT, LIVER, S-9, AROCLOR 1254, Method: PREINCUBATION
[12] = Test System: AMES SALMONELLA TYPHIMURIUM, Strain/Indicator: TA100, Metabolic Activation: RAT, LIVER, S-9, AROCLOR 1254, Method: STANDARD PLATE

`Nc1ccc(Oc2ccc(Oc3ccc(N)cc3)cc2)cc1` was tested, and the mutagenic call [1] was “inactive; negative”, the mutagenic call [2] was “inactive; negative” and the mutagenic call [3] was “active; positive”.
For `O=[N+]([O-])c1ccc2ccc3cc4ccccc4c4ccc1c2c34`, the mutagenic call (Test System: AMES SALMONELLA TYPHIMURIUM, Strain/Indicator: TA98(1,8-DNP6), Metabolic Activation: NONE) was “active; positive”, the mutagenic call (Test System: AMES SALMONELLA TYPHIMURIUM, Strain/Indicator: TA98(1,8-DNP6), Metabolic Activation: NONE, Method: STANDARD PLATE) was “active; positive” and the mutagenic call (Test System: AMES SALMONELLA TYPHIMURIUM, Strain/Indicator: TA98(1,8-DNP6), Metabolic Activation: RAT, LIVER, S-9, AROCLOR 1254) was “active; positive”. For the same compound, the mutagenic call (Test System: AMES SALMONELLA TYPHIMURIUM, Strain/Indicator: TA98(NR), Metabolic Activation: NONE) was “active; positive”, the mutagenic call [4] was “active; positive” and the mutagenic call [5] was “inactive; negative”. For the same compound, the mutagenic call (Test System: AMES SALMONELLA TYPHIMURIUM, Strain/Indicator: TA98(NR), Metabolic Activation: RAT, LIVER, S-9, AROCLOR 1254) was “active; positive”, the mutagenic call (Test System: AMES SALMONELLA TYPHIMURIUM, Strain/Indicator: TA98, Metabolic Activation: NONE) was “active; positive” and the mutagenic call (Test System: AMES SALMONELLA TYPHIMURIUM, Strain/Indicator: TA98, Metabolic Activation: NONE', Method: STANDARD PLATE) was “active; positive”. For the same compound, the mutagenic call [1] was “active; positive”, the mutagenic call [6] was “active; positive” and the mutagenic call (Test System: AMES SALMONELLA TYPHIMURIUM, Strain/Indicator: TA98, Metabolic Activation: NONE, Method: STANDARD PLATE (ANAEROBIC)) was “active; positive”. For the same compound, the mutagenic call (Test System: AMES SALMONELLA TYPHIMURIUM, Strain/Indicator: TA98, Metabolic Activation: RAT, LIVER, HEPATOCYTES, AROCLOR 1254) was “active; positive”, the mutagenic call (Test System: AMES SALMONELLA TYPHIMURIUM, Strain/Indicator: TA98, Metabolic Activation: RAT, LIVER, S-9, AROCLOR 1254) was “active; positive” and the mutagenic call [7] was “active; positive”. The mutagenic call (Test System: CHINESE HAMSTER OVARY, Strain/Indicator: CHO-K1-BH4 (HGPRT), Metabolic Activation: NONE) was “inactive; negative”, the mutagenic call (Test System: CHINESE HAMSTER OVARY, Strain/Indicator: CHO-K1-BH4 (HGPRT), Metabolic Activation: RAT, LIVER, S-9, 3-METHYLCHOLANTHRENE) was “active; positive” and the mutagenic call (Test System: CHO/HGPRT, Strain/Indicator: CHO-K1-BH4, Metabolic Activation: NONE) was “inactive; negative”. The mutagenic call (Test System: CHO/HGPRT, Strain/Indicator: CHO-K1-BH4, Metabolic Activation: RAT, LIVER, HEPATOCYTES) was “inactive; negative”, the mutagenic call (Test System: CHO/HGPRT, Strain/Indicator: CHO-K1-BH4, Metabolic Activation: RAT, LIVER, HEPATOCYTES, 3-METHYLCHOLANTHRENE) was “inactive; negative” and the mutagenic call (Test System: CHO/HGPRT, Strain/Indicator: CHO-K1-BH4, Metabolic Activation: RAT, LIVER, HEPATOCYTES, AROCLOR 1254) was “inactive; negative”. For the same compound, the mutagenic call (Test System: CHO/HGPRT, Strain/Indicator: CHO-K1-BH4, Metabolic Activation: RAT, LIVER, S-9) was “inactive; negative”, the mutagenic call (Test System: CHO/HGPRT, Strain/Indicator: CHO-K1-BH4, Metabolic Activation: RAT, LIVER, S-9, 3-METHYLCHOLANTHRENE) was “active; positive” and the mutagenic call (Test System: CHO/HGPRT, Strain/Indicator: CHO-K1-BH4, Metabolic Activation: RAT, LIVER, S-9, AROCLOR 1254) was “active; positive”.
With `C1CC2OC2CCC2OC12` (stereo not drawn) the mutagenic call [7] was “inactive; negative” and the mutagenic call [8] was “inactive; negative”.
In the case of `O=C(CBr)c1oc([N+](=O)[O-])c(-c2ccccc2)c1-c1ccccc1`, the mutagenic call [5] is reported as “active; positive”, the mutagenic call [6] is reported as “active; positive” and the mutagenic call (Test System: AMES SALMONELLA TYPHIMURIUM, Strain/Indicator: TA100(NR), Metabolic Activation: NONE, Method: STANDARD PLATE) is reported as “active; positive”. For the same compound, the mutagenic call [7] was “active; positive”.
For `CC(=O)Nc1ccc(Oc2ccc(N=O)cc2)cc1`, the mutagenic call (Test System: AMES SALMONELLA TYPHIMURIUM, Strain/Indicator: TA98(1,8-DNP6), Metabolic Activation: NONE, Method: PREINCUBATION) was “active; positive”, the mutagenic call (Test System: AMES SALMONELLA TYPHIMURIUM, Strain/Indicator: TA98(1,8-DNP6), Metabolic Activation: RAT, LIVER, S-9, AROCLOR 1254, Method: PREINCUBATION) was “active; positive” and the mutagenic call [4] was “active; positive”. For the same compound, the mutagenic call (Test System: AMES SALMONELLA TYPHIMURIUM, Strain/Indicator: TA98(NR), Metabolic Activation: RAT, LIVER, S-9, AROCLOR 1254, Method: PREINCUBATION) was “active; positive”, the mutagenic call [1] was “active; positive” and the mutagenic call [9] was “active; positive”. For the same compound, the mutagenic call (Test System: AMES SALMONELLA TYPHIMURIUM, Strain/Indicator: TA100(NR), Metabolic Activation: NONE, Method: PREINCUBATION) was “active; positive” and the mutagenic call [2] was “active; positive”.
In the case of `C=CCCC1CO1` (stereo not drawn), the mutagenic call [7] is reported as “active; positive” and the mutagenic call [8] is reported as “active; positive”.
In the case of `Oc1ccc2ccc3cc4ccccc4c4ccc1c2c34`, the mutagenic call [1] is reported as “inactive; negative”, the mutagenic call [9] is reported as “active; positive” and the mutagenic call (Test System: AMES SALMONELLA TYPHIMURIUM, Strain/Indicator: TA98, Metabolic Activation: RAT, LUNG, S-9, Method: PREINCUBATION) is reported as “active; positive”. For the same compound, the mutagenic call (Test System: CHINESE HAMSTER V-79, Strain/Indicator: V-79/8-AZAGUANINE, Metabolic Activation: NONE, Method: STANDARD PLATE) was “active; positive” and the mutagenic call (Test System: CHINESE HAMSTER V-79, Strain/Indicator: V-79/OUABAIN, Metabolic Activation: NONE, Method: STANDARD PLATE) was “active; positive”.
With `CC(C)(C)C1=CC(=O)C=CC1=O` the mutagenic call (Test System: AMES SALMONELLA TYPHIMURIUM, Strain/Indicator: TA97, Metabolic Activation: NONE, Method: PREINCUBATION) was “inactive; negative”, the mutagenic call (Test System: AMES SALMONELLA TYPHIMURIUM, Strain/Indicator: TA97, Metabolic Activation: RAT, LIVER, S-9, PCB, Method: PREINCUBATION) was “inactive; negative” and the mutagenic call [6] was “inactive; negative”. The mutagenic call [9] was “inactive; negative”, the mutagenic call [10] was “inactive; negative” and the mutagenic call (Test System: AMES SALMONELLA TYPHIMURIUM, Strain/Indicator: TA98, Metabolic Activation: RAT, LIVER, S-9, PCB, Method: PREINCUBATION) was “inactive; negative”. The mutagenic call [7] was “inactive; negative”, the mutagenic call [11] was “inactive; negative” and the mutagenic call [12] was “inactive; negative”. The mutagenic call [3] was “inactive; negative”, the mutagenic call (Test System: AMES SALMONELLA TYPHIMURIUM, Strain/Indicator: TA102, Metabolic Activation: NONE, Method: PREINCUBATION) was “inactive; negative” and the mutagenic call (Test System: AMES SALMONELLA TYPHIMURIUM, Strain/Indicator: TA102, Metabolic Activation: RAT, LIVER, S-9, PCB, Method: PREINCUBATION) was “inactive; negative”. For the same compound, the mutagenic call (Test System: CHINESE HAMSTER V-79, Strain/Indicator: V-79 (HGPRT)/6-THIOGUANINE, Metabolic Activation: NONE) was “inactive; negative” and the mutagenic call (Test System: CHINESE HAMSTER V-79, Strain/Indicator: V-79 (HGPRT)/6-THIOGUANINE, Metabolic Activation: RAT, LIVER, HEPATOCYTES) was “inactive; negative”.
In the case of `C1=Cc2c(ccc3nc4ccc5ccccc5c4cc23)CC1`, the mutagenic call (Test System: AMES SALMONELLA TYPHIMURIUM, Strain/Indicator: TA98, Metabolic Activation: GUINEA PIG, LIVER, S-9, 3-METHYLCHOLANTHRENE, Method: STANDARD PLATE) is reported as “active; positive” and the mutagenic call (Test System: AMES SALMONELLA TYPHIMURIUM, Strain/Indicator: TA100, Metabolic Activation: GUINEA PIG, LIVER, S-9, 3-METHYLCHOLANTHRENE, Method: STANDARD PLATE) is reported as “active; positive”.
In the case of `O=NN1CCSC1[C@H](O)[C@@H](O)[C@@H](O)CO` (stereo partly drawn), the mutagenic call [1] is reported as “inactive; negative”, the mutagenic call [6] is reported as “inactive; negative” and the mutagenic call [9] is reported as “inactive; negative”. For the same compound, the mutagenic call [10] was “inactive; negative”, the mutagenic call [2] was “inactive; negative” and the mutagenic call [7] was “inactive; negative”. For the same compound, the mutagenic call [11] was “inactive; negative” and the mutagenic call [12] was “inactive; negative”.
With `COC(=O)[C@H]1CS[C@H]2C(Cl)=C(Cl)C(=O)N12` the mutagenic call [7] was “active; positive”.
